Laboratory results reported in patent publication US7880010B2, “Crystalline forms of a dimethylphenyl compound” (Theravance, Inc., priority 2006, dated 2011).

Experiments:
Experiment in all cases: Radioligand binding assay for muscarinic receptors ([3H]-NMS displacement)
[1] = molecular target: T1, hM1 muscarinic receptor (Homo sapiens, UniProt P11229); conditions: M1 muscarinic receptor subtype, CHO cell membranes, [3H]-NMS 1 nM
T1 construct: expressed in transfected cells; host or cells: CHO
T1 sequence (P11229 1-460): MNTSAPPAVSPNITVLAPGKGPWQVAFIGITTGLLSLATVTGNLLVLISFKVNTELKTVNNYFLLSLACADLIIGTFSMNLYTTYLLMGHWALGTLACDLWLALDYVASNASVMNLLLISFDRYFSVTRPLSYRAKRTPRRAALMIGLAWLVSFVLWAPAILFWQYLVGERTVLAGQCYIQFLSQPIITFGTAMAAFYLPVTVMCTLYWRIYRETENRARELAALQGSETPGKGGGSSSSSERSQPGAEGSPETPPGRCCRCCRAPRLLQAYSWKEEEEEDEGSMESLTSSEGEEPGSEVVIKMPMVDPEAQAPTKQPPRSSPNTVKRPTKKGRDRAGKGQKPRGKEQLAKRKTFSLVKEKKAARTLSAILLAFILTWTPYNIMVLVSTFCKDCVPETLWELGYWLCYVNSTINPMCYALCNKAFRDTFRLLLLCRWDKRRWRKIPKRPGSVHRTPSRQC
Method: (§1) CHO cell lines stably expressing cloned human hM1, hM2, hM3 and hM4 muscarinic receptor subtypes, respectively, were grown to near confluency in Hams F-12 media supplemented with 10% FBS and 250 μg/mL Geneticin. The cells were grown in a 5% CO2, 37° C. incubator and lifted with 2 mM EDTA in dPBS. Cells were collected by 5 minute centrifugation at 650×g, and cell pellets were either stored frozen at −80° C. or membranes were prepared immediately for use. For membrane preparation, cell pellets were resuspended in lysis buffer and homogenized with a Polytron PT-2100 tissue disrupter (Kinematica AG; 20 seconds×2 bursts). Crude membranes were centrifuged at 40,000×g for 15 minutes at 4° C. The membrane pellet was then resuspended with re-suspension buffer and homogenized again with the Polytron tissue disrupter. The protein concentration of the membrane suspension was determined by the method described in Lowry et al., 1951, Journal of Biochemistry, 193, 265. All membranes were stored frozen in aliquots at −80° C. or used immediately. Aliquots of prepared hM5 receptor membranes were purchased directly from PerkinElmer, Inc. (Wellesley, Mass.) and stored at −80° C. until use.
(§2) Radioligand binding assays for cloned muscarinic receptors were performed in 96-well microtiter plates in a total assay volume of 100 μL. CHO cell membranes stably expressing either the hM1, hM2, hM3, hM4 or hM5 muscarinic subtype were diluted in assay buffer to the following specific target protein concentrations (μg/well): 10 μg for hM1, 10-15 μg for hM2, 10-20 μg for hM3, 10-20 μg for hM4, and 10-12 μg for hM5 to get similar signals (cpm). The membranes were briefly homogenized using a Polytron tissue disrupter (10 seconds) prior to assay plate addition. Saturation binding studies for determining KD values of the radioligand were performed using L-[N-methyl-^3H]scopolamine methyl chloride ([^3H]-NMS) (TRK666, 84.0 Ci/mmol, Amersham Pharmacia Biotech, Buckinghamshire, England) at concentrations ranging from 0.001 nM to 20 nM. Displacement assays for determination of Ki values of test compounds were performed with [^3H]-NMS at 1 nM and eleven different test compound concentrations. The test compounds were initially dissolved to a concentration of 400 μM in dilution buffer and then serially diluted 5× with dilution buffer to final concentrations ranging from 10 pM to 100 μM. The addition order and volumes to the assay plates were as follows: 25 μL radioligand, 25 μL diluted test compound, and 50 μL membranes. Assay plates were incubated for 60 minutes at 37° C. Binding reactions were terminated by rapid filtration over GF/B glass fiber filter plates (PerkinElmer, Inc.) pre-treated in 1% BSA. Filter plates were rinsed three times with wash buffer (10 mM HEPES) to remove unbound radioactivity. The plates were then air-dried and 50 μL Microscint-20 liquid scintillation fluid (PerkinElmer, Inc.) were added to each well. The plates were then counted in a PerkinElmer Topcount liquid scintillation counter (PerkinElmer, Inc.). Binding data were analyzed by nonlinear regression analysis with the GraphPad Prism Software package (GraphPad Software, Inc., San Diego, Calif.) using the one-site competition model. Ki values for test compounds were calculated from observed IC50 values and the KD value of the radioligand using the Cheng-Prusoff equation (Cheng Y; Prusoff W H. (1973) Biochemical Pharmacology, 22(23):3099-108). […]

[2] = molecular target: T2, hM3 muscarinic receptor (Homo sapiens, UniProt P20309); conditions: M3 muscarinic receptor subtype, CHO cell membranes, [3H]-NMS 1 nM
T2 construct: expressed in transfected cells; host or cells: CHO
T2 sequence (P20309 whole entry): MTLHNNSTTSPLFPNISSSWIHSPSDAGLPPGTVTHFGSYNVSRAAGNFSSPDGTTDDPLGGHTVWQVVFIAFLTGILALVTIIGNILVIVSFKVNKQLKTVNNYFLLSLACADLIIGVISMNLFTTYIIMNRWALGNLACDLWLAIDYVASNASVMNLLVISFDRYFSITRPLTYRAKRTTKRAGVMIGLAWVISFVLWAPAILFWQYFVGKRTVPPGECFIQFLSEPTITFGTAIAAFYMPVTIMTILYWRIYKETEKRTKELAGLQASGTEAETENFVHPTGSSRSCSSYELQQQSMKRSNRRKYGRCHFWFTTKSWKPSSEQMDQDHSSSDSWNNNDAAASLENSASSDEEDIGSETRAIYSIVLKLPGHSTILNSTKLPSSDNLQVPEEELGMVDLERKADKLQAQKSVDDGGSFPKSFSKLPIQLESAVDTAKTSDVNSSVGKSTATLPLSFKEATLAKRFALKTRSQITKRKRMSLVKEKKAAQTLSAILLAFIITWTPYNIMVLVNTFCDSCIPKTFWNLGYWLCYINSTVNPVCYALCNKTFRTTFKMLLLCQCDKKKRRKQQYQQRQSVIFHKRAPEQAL
Method: as §1, §2

[3] = molecular target: T3, hM2 muscarinic receptor (Homo sapiens, UniProt P08172); conditions: M2 muscarinic receptor subtype, CHO cell membranes, [3H]-NMS 1 nM
T3 construct: expressed in transfected cells; host or cells: CHO / CHO-K1
T3 sequence (P08172 1-466): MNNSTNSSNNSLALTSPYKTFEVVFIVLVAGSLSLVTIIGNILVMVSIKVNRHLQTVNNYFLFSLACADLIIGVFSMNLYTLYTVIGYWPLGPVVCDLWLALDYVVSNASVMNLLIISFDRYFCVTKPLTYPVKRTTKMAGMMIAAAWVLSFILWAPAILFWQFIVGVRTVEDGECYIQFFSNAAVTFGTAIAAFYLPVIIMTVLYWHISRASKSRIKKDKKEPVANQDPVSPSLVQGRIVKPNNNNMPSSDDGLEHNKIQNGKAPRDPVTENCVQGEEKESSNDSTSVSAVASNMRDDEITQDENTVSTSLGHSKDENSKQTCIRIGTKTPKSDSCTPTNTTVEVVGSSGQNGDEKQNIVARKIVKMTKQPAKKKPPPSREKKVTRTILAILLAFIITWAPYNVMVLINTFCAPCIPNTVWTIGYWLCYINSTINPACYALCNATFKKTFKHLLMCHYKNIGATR
Method: as §1, §2

Measured: Ki

Cc1cc(NC(=O)CCN2CCC(OC(=O)Nc3ccccc3-c3ccccc3)CC2)c(C)cc1CNC[C@H](O)c1ccc(O)c(NC=O)c1 [compound of formula I, biphenyl-2-ylcarbamic acid 1-[2-(4-{[(R)-2-(3-formylamino-4-hydroxyphenyl)-2-hydroxyethylamino]methyl}-2,5-dimethylphenylcarbamoyl)ethyl]-piperidin-4-yl ester]
< 0.01 µM: all assays above
